Measurements taken from article PMC8175350, “Drug repurposing screens identify chemical entities for the development of COVID-19 interventions” (Nature Communications, 2021).
Values joined by “and” are separate entries in the source; they are usually repeats but may differ in a detail not shown here. Equal entries are not always repeated. Where two headings read alike, the source gives them in different places.

Tests used:
HeLa-ACE2 cells [1] = experiment: Uninfected HeLa-ACE2 24 h live/dead cytotoxicity counter screen; assay type: cell-based, human; conditions: for cytotox: HeLa-ACE2, replicate wells n=1-3
[2] = as above; assay type: cell-based, human; conditions: human, uninfected HeLa-ACE2 cells
HeLa-ACE2 cells [3] = experiment: cells; conditions: Homo sapiens
Calu-3 cells [4] = experiment: Uninfected Calu-3 48 h Cell-Titer Glo cytotoxicity counter screen; conditions: for cytotox: Calu-3, replicate wells n=1-3
[5] = as above; conditions: human, uninfected Calu-3 cells
SARS-CoV-2 [6] = experiment: microbe, parasite or virus in culture; assay type: cell-based; conditions: for %infected: HeLa-ACE2, replicate wells n=1-3
SARS-CoV-2 [7] = experiment: microbe, parasite or virus in culture; assay type: cell-based; conditions: for %infected: Calu-3, replicate wells n=1-3
Calu-3 cells [8] = experiment: cells; conditions: Homo sapiens
SARS-CoV-2 [9] = experiment: microbe, parasite or virus in culture; assay type: cell-based; conditions: for TOA: HeLa-ACE2, replicate wells n=1-3
[10] = curve-fit effect at infinite concentration, average

COCc1c(C(C)C)nc(C(C)C)c(/C=C/[C@@H](O)C[C@@H](O)CC(=O)O)c1-c1ccc(F)cc1 [Cerivastatin sodium]
HeLa-ACE2 uninfected cytotoxicity Sinf Average (HeLa-ACE2 cells [1]; [10]): -74%
CC50 at 24 h ([2]; uninfected cells, Fig. 2b group, read-out: HeLa-ACE2 CC50): ≤ 3000 nM
CC50 at 24 h ([2]; unrounded geometric mean, read-out: HeLa-ACE2 uninfected cytotoxicity CC50 GeoMean): 308 nM
Emax (HeLa-ACE2 cells [3]; HeLa-ACE2, 24 h, read-out: HeLa-ACE2 cell count Sinf Average): 100%
EC50 (HeLa-ACE2 cells [3]; HeLa-ACE2, read-out: HeLa-ACE2 cell count EC50 GeoMean, unrounded geometric mean): > 9590 nM
Calu-3 uninfected cytotoxicity Sinf Average (Calu-3 cells [4]; [10]): -100%
CC50 at 48 h ([5]; Calu-3 uninfected cytotoxicity CC50 GeoMean, unrounded geometric mean): > 29900 nM
EC50 (SARS-CoV-2 [6]; Severe acute respiratory syndrome coronavirus 2, HeLa-ACE2, unrounded geometric mean, read-out: HeLa-ACE2 CoV-2 EC50 GeoMean): > 9.59 µM
Emax (SARS-CoV-2 [7]; Severe acute respiratory syndrome coronavirus 2, Calu-3, 48 h, curve-fit effect at infinite concentration, average, read-out: Calu-3 CoV-2 Sinf Average): 63%
EC50 (SARS-CoV-2 [7]; Severe acute respiratory syndrome coronavirus 2, Calu-3, unrounded geometric mean, read-out: Calu-3 CoV-2 EC50 GeoMean): 348 nM
Emax (Calu-3 cells [8]; Calu-3, 48 h, read-out: Calu-3 cell count Sinf Average): 89%
EC50 (Calu-3 cells [8]; Calu-3, read-out: Calu-3 cell count EC50 GeoMean, unrounded geometric mean): 936 nM

COc1ccc(C[C@H](N)C(=O)N[C@H]2[C@@H](O)[C@H](n3cnc4c(N(C)C)ncnc43)O[C@@H]2CO)cc1 [Puromycin]
cytotox (HeLa-ACE2 cells [1]; concentration log[M] -4.39794): -100 (5×) and -99.957 and -100.055 and -99.8917 and -99.5551
cytotox (HeLa-ACE2 cells [1]; concentration log[M] -4.87506): -100 (5×) and -100.043 and -100.055 and -99.8917 and -99.8888
cytotox (HeLa-ACE2 cells [1]; concentration log[M] -5.35218): -99.2405 and -100.043 and -100 and -99.7082 and -99.8513 and -99.7143 and -99.834 and -99.8917 and -99.8888
cytotox (HeLa-ACE2 cells [1]; concentration log[M] -5.8293): -94.5992 and -94.54 and -94.2197 and -97.5201 and -91.5242 and -94.1429 and -95.9602 and -98.5916 and -99.2214
cytotox (HeLa-ACE2 cells [1]; concentration log[M] -6.30643): -16.5401 and -18.2717 and -10.2395 and -53.9023 and -53.9033 and -44.2857 and -37.078 and -52.3294 and -37.5973
cytotox (HeLa-ACE2 cells [1]; concentration log[M] -6.78355): -2.194 and 3.482 and 5.615 and -5.9081 and 6.4684 and -6.286 and -2.656 and 2.0585 and 1.78
cytotox (HeLa-ACE2 cells [1]; concentration log[M] -7.26067): 9.198 and 8.212 and 13.6251 and -16.9949 and 6.9145 and -11.5714 and 1.66 and 4.117 and 13.2369
cytotox (HeLa-ACE2 cells [1]; concentration log[M] -7.73779): 5.148 and 2.193 and 2.395 and 7.367 and 9.294 and 9.714 and 11.1787 and -1.625 and 6.897
CC50 at 24 h ([2]; geomean, read-out: uninfected HeLa-ACE2 cytotoxicity CC50): 658 nM
EC50 (HeLa-ACE2 cells [3]; HeLa-ACE2, read-out: cell count in infection assay EC50, HeLa-ACE2, geomean, ^↑ = increasing dose-response curve): 1550 nM
TOA (SARS-CoV-2 [9]; concentration log[M] -5.017): -102.365 and -102.878 and -104.791 and -98.49 and -99.8269 and -99.8889 and -98.5459 and -89.5564 and -100
TOA (SARS-CoV-2 [9]; concentration log[M] -5.4942): -102.562 and -103.725 and -107.111 and -95.8769 and -99.8786 and -99.7495 and -98.3444 and -97.4941 and -99.8965
TOA (SARS-CoV-2 [9]; concentration log[M] -5.9713): -102.27 and -103.614 and -103.314 and -96.7138 and -100 (3×) and -98.3433 and -92.9164
TOA (SARS-CoV-2 [9]; concentration log[M] -6.4484): -6.41 and -22.1743 and -1.526 and -76.305 and -86.1829 and -83.03 and -58.994 and -58.9112 and -89.0793
TOA (SARS-CoV-2 [9]; concentration log[M] -6.9255): -12.6152 and -14.5357 and 3.304 and -16.4877 and -30.7409 and -13.5207 and -8.881 and -3.253 and -32.0225
TOA (SARS-CoV-2 [9]; concentration log[M] -7.4026): -1.409 and 2.055 and 2.822 and -9.903 and -4.893 and -5.119 and -5.9163 and -2.505 and -5.006
TOA (SARS-CoV-2 [9]; concentration log[M] -7.8798): -0.7005 and -1.372 and 4.453 and -4.998 and -0.516 and 2.028 and -14.3841 and -2.585 and -13.6565
EC50 (SARS-CoV-2 [9]; Severe acute respiratory syndrome coronavirus 2, HeLa-ACE2, fixed 10 hpi, geomean, read-out: CoV-2 TOA EC50): 316 nM
cytotox (Calu-3 cells [4]; concentration log[M] -4.52288): -100.931 and -99.9022 and -95.4488 and -97.7263 and -96.8224 and -101.443 and -97.7214 and -100.308 and -97.0229
cytotox (Calu-3 cells [4]; concentration log[M] -5): -80.4262 and -81.4732 and -68.7172 and -83.9318 and -82.4069 and -88.2536 and -90.1262 and -91.0255 and -86.7764
cytotox (Calu-3 cells [4]; concentration log[M] -5.47712): -21.5211 and -21.4754 and -12.3695 and -29.1257 and -36.4975 and -41.3268 and -49.2553 and -54.1555 and -56.8603
cytotox (Calu-3 cells [4]; concentration log[M] -5.95424): -2.83 and -11.281 and -7.043 and -17.8087 and -13.674 and -31.1214 and -23.8075 and -33.8515 and -29.7354
cytotox (Calu-3 cells [4]; concentration log[M] -6.43136): 2.078 and 1.682 and 8.441 and -6.555 and 0.06053 and -11.5086 and -12.2093 and -0.8504 and -4.056
cytotox (Calu-3 cells [4]; concentration log[M] -6.90848): 3.604 and 1.518 and 9.871 and 2.227 and 16.0597 and -0.8904 and 5.168 and 1.586 and 4.2472
cytotox (Calu-3 cells [4]; concentration log[M] -7.38561): 8.858 and -2.4064 and 3.577 and 15.479 and 1.71 and -0.4894 and 11.4275 and 7.753 and 11.1753
cytotox (Calu-3 cells [4]; concentration log[M] -7.86273): 1.729 and -14.6095 and -2.223 and 9.032 and 7.858 and -12.5661 and -1.561 and 2.663 and 8.58
CC50 at 48 h ([5]; cytotoxicity CC50, uninfected Calu-3, geomean): 3950 nM
EC50 (SARS-CoV-2 [6]; HeLa-ACE2, individual values of 9 independent experiments, read-out: EC50 (µM), Fig 1c): 0.435 µM and 0.38 µM and 0.598 µM and 0.621 µM and 0.45 µM and 0.531 µM and 0.521 µM and 0.566 µM and 0.31 µM
%infected (SARS-CoV-2 [6]; concentration log[M] -5.017): -100.174% and -66.1982% and -101.885% and -101.158% and -100.229% and -100.414% and -100.159% and -100.524% and -100%
%infected (SARS-CoV-2 [6]; concentration log[M] -5.4942): -100.174% and -93.9019% and -89.6683% and -95.454% and -98.8405% and -100.414% and -93.5473% and -100.524% and -98.8065%
%infected (SARS-CoV-2 [6]; concentration log[M] -5.9713): -100.174% and -98.3678% and -99.6425% and -99.9897% and -99.6057% and -100.414% and -99.8612% and -100.183% and -99.7407%
%infected (SARS-CoV-2 [6]; concentration log[M] -6.4484): 1.313%
EC50 (SARS-CoV-2 [6]; Severe acute respiratory syndrome coronavirus 2, HeLa-ACE2, HeLa-ACE2, MOI 0.09, read-out: EC50): 0.52 µM
EC50 (SARS-CoV-2 [6]; Severe acute respiratory syndrome coronavirus 2, HeLa-ACE2, HeLa-ACE2, MOI 0.26, read-out: EC50): 0.433 µM
EC50 (SARS-CoV-2 [6]; Severe acute respiratory syndrome coronavirus 2, HeLa-ACE2, HeLa-ACE2, MOI 0.51, read-out: EC50): 0.43 µM
EC50 (SARS-CoV-2 [6]; Severe acute respiratory syndrome coronavirus 2, HeLa-ACE2, HeLa-ACE2, MOI 1.1, read-out: EC50): 0.431 µM
EC50 (SARS-CoV-2 [6]; Severe acute respiratory syndrome coronavirus 2, HeLa-ACE2, HeLa-ACE2, MOI 2.2, read-out: EC50): 0.455 µM
EC50 (SARS-CoV-2 [6]; Severe acute respiratory syndrome coronavirus 2, HeLa-ACE2, HeLa-ACE2, geomean, read-out: SARS-CoV-2 EC50): 0.48 µM
%infected (SARS-CoV-2 [7]; concentration log[M] -5): -95.8583% and -98.0315% and -98.6862% and -95.9501% and -76.0417% and -82.6326% and -93.9332% and -99.6609% and -93.5404%
%infected (SARS-CoV-2 [7]; concentration log[M] -5.47712): -67.9332% and -73.9862% and -77.2001% and -69.7882% and -47.5028% and -51.8982% and -50.0755% and -50.9352% and -58.0559%
%infected (SARS-CoV-2 [7]; concentration log[M] -5.95424): -28.7555% and -23.4276% and -35.8088% and -33.2702% and 12.7351% and -26.1199% and 1.582% and -3.868% and -16.5101%
%infected (SARS-CoV-2 [7]; concentration log[M] -6.43136): -8.682% and 16.1023% and -10.697% and 2.701% and -30.2762% and -2.034% and 9.733% and 3.624% and 18.0604%
%infected (SARS-CoV-2 [7]; concentration log[M] -6.90849): 14.8237% and -16.8235% and 10.3561% and -2.261% and -10.1676% and -3.437% and 1.061% and 10.2779% and -14.1014%
%infected (SARS-CoV-2 [7]; concentration log[M] -7.38561): 9.109% and 11.8626% and -0.1312% and 10.7467% and -22.0858% and 7.736% and -8.662% and -8.078% and 8.576%
%infected (SARS-CoV-2 [7]; concentration log[M] -7.86273): -4.7462% and 13.3419% and -1.416% and -3.878% and 20.4436% and -1.961% and -6.536% and -8.873% and -15.4821%
%infected (SARS-CoV-2 [7]; concentration log[M] -8.33985): 2.5816% and -20.6025% and -3.165% and -4.091% and -15.6383% and 9.983% and 19.7898% and 7.961% and 5.366%
EC50 (SARS-CoV-2 [7]; Severe acute respiratory syndrome coronavirus 2, Calu-3, Calu-3, geomean, read-out: SARS-CoV-2 EC50): 2740 nM
EC50 (Calu-3 cells [8]; Calu-3, read-out: cell count EC50, Calu-3, geomean, ^↑ = increasing dose-response curve): > 10000 nM
